# Measurements: ChEMBL document CHEMBL1148378 (J Med Chem, 2004)
# Experiments:
# [1] = biological target: Matrix metalloproteinase-14 (Homo sapiens, UniProt P50281); experiment: Inhibition of Matrix metalloprotease-14
# Stromelysin-3 = biological target: T1, Stromelysin-3 (Mus musculus, UniProt Q02853); experiment: Inhibition of Matrix metalloprotease-11
# T1 sequence (Q02853 whole entry): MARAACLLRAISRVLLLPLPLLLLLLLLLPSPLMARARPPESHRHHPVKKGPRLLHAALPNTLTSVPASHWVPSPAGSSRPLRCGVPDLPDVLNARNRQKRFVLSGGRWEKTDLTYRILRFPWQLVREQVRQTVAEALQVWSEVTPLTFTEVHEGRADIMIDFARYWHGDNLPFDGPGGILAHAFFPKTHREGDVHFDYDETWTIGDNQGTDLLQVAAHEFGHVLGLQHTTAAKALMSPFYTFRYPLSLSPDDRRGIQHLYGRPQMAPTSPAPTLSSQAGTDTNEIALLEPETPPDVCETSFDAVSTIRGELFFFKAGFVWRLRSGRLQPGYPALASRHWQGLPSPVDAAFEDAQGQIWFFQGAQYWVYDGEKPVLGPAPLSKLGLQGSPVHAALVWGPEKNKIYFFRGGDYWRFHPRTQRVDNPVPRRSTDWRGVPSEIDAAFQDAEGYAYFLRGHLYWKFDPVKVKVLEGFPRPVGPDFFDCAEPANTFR
# Neutrophil collagenase = Neutrophil collagenase (Homo sapiens, UniProt P22894); experiment: Inhibition of matrix metalloprotease-8
# Sequence of Neutrophil collagenase (P22894 whole entry): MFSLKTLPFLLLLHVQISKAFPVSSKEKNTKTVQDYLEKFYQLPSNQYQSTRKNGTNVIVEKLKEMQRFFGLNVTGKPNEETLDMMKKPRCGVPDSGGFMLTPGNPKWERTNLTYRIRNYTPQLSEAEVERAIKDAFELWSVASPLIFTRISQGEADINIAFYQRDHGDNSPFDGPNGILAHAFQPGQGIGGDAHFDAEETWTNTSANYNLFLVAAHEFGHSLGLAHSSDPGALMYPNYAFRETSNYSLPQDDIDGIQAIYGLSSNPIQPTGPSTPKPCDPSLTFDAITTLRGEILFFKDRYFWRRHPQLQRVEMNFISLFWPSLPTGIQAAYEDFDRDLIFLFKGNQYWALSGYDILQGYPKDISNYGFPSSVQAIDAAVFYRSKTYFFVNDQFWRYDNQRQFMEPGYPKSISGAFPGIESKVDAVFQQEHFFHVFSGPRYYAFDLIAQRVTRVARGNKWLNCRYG
# [2] = biological target: 72 kDa type IV collagenase (Homo sapiens, UniProt P08253); experiment: Inhibition of Matrix metalloprotease-2
# Sequence of 72 kDa type IV collagenase (P08253 whole entry): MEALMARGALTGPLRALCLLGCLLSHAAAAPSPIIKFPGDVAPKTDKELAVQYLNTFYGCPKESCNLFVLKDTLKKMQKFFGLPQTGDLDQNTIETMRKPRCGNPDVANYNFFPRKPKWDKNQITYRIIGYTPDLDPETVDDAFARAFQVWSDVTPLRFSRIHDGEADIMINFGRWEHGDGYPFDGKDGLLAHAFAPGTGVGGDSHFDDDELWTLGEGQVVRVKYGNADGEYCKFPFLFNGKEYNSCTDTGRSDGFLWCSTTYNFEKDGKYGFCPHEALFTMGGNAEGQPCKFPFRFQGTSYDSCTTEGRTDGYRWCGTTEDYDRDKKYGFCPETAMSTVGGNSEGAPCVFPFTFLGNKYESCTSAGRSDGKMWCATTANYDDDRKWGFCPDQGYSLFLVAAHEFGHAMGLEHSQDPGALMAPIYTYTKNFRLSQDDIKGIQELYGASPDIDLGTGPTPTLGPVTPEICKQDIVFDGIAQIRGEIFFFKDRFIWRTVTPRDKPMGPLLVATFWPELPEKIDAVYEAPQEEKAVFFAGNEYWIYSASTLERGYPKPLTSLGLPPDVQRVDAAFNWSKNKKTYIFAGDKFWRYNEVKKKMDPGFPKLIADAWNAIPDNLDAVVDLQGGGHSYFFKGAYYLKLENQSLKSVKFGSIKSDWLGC
# [3] = biological target: Matrix metalloproteinase-9 (Homo sapiens, UniProt P14780); experiment: Inhibition of Matrix metalloprotease-9
# Sequence of Matrix metalloproteinase-9 (P14780 whole entry): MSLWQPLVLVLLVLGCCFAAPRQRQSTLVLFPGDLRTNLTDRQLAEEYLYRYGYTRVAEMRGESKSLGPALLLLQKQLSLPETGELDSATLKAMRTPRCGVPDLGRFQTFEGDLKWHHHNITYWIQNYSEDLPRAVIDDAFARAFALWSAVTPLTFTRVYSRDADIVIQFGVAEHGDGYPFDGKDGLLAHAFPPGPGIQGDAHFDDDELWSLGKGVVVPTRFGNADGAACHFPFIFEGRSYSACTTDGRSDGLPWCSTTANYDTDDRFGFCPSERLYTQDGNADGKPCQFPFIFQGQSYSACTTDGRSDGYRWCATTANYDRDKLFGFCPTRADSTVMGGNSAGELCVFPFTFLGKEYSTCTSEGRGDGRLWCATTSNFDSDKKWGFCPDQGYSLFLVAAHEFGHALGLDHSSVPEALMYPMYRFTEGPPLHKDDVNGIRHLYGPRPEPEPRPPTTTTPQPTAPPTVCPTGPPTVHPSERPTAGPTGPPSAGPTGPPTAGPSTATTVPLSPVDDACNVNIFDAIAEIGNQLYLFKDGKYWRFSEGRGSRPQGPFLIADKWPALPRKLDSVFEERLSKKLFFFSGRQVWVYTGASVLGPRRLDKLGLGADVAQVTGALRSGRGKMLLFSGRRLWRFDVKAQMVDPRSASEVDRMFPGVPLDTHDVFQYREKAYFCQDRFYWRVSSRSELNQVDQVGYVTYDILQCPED
# Collagenase 3 = Collagenase 3 (Homo sapiens, UniProt P45452); experiment: Inhibition of matrix metalloprotease-13
# Interstitial collagenase = biological target: T2, Interstitial collagenase (Homo sapiens, UniProt P03956); experiment: Inhibition of matrix metalloprotease-1
# T2 sequence (P03956 whole entry): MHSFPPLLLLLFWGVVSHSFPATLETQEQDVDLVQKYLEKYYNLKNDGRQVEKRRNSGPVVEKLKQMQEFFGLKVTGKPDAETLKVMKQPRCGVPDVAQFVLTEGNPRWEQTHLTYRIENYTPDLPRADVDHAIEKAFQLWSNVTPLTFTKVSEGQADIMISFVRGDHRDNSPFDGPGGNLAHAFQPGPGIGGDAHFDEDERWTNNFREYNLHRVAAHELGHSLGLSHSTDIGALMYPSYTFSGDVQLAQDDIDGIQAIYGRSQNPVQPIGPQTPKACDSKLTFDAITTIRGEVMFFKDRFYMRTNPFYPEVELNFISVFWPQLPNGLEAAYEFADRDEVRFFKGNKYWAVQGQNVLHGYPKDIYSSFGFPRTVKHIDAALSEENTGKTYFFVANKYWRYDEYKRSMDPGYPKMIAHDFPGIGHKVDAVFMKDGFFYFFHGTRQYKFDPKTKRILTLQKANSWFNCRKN
# Matrilysin = biological target: T3, Matrilysin (Homo sapiens, UniProt P09237); experiment: Inhibition of Matrix metalloprotease-7
# T3 sequence (P09237 whole entry): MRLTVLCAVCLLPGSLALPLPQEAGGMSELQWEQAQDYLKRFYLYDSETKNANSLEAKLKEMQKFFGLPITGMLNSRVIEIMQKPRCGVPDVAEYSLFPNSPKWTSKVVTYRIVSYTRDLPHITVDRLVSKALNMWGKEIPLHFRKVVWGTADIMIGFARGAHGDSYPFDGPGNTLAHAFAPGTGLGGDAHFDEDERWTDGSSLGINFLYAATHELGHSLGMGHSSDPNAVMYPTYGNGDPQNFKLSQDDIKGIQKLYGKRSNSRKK
Ki [1] [µM],Ki (Stromelysin-3) [µM],Ki (Neutrophil collagenase) [µM],Ki [2] [µM],Ki [3] [µM],Ki (Collagenase 3) [µM],Ki (Interstitial collagenase) [µM],Ki (Matrilysin) [µM],Compound
30,0.41,200,200,148,200,,,NC(=O)C(Cc1c[nH]c2ccccc12)NC(=O)C(CSc1ccccc1OC(F)(F)F)CP(=O)(O)C(Cc1ccccc1)NC(=O)OCc1ccccc1 (stereo not given)
,,,,,,> 2,> 2,NC(=O)C(Cc1c[nH]c2ccccc12)NC(=O)C(CCCc1ccccc1)CP(=O)(O)C(Cc1ccccc1)NC(=O)OCc1ccccc1 (stereo not given)
30.1,0.11,18.4,4.65,3.91,4.7,,,NC(=O)C(Cc1c[nH]c2ccccc12)NC(=O)C(CSc1ccccc1Br)CP(=O)(O)C(Cc1ccccc1)NC(=O)OCc1ccccc1 (stereo not given)
160,0.23,38.9,30,35.6,15.7,,,COc1ccccc1SCC(CP(=O)(O)C(Cc1ccccc1)NC(=O)OCc1ccccc1)C(=O)NC(Cc1c[nH]c2ccccc12)C(N)=O (stereo not given)
